Experimental findings from ChEMBL document CHEMBL5104103 (J Med Chem, 2022) are described below.

As a reminder, the inhibition is how much of the control response was suppressed. What is called NOAEL is the highest dose or exposure tested at which no adverse effect was seen.

The target of data set [1] is T1, Cytoplasmic tyrosine-protein kinase BMX (Homo sapiens) (UniProt P51813).
T1 sequence (whole entry): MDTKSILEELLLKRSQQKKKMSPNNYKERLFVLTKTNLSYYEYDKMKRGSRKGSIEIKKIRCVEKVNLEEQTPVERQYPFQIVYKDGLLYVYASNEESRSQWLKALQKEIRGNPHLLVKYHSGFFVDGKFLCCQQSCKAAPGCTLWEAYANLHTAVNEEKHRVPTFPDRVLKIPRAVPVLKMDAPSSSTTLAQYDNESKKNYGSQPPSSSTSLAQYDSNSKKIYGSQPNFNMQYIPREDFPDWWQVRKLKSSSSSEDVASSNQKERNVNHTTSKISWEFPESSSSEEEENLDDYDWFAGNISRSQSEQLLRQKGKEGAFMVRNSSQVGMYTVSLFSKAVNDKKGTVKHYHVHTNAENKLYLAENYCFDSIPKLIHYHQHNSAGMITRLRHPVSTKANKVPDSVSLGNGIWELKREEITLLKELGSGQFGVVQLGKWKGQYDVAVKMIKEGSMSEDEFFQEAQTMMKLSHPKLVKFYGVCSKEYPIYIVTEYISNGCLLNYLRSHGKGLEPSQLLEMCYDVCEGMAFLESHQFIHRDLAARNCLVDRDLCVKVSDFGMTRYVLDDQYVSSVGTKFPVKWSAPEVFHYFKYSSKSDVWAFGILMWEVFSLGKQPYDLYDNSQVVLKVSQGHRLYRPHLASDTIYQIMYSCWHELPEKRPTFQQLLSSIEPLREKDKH
As to the kind of experiment: Displacement of competitive tracer from BMX (unknown origin) assessed as target occupancy at […] preincubated for 15 mins measured for 1 hr relative to control. Particulars: dose 1.5 µM.

The target of data set [2] is T1, Cytoplasmic tyrosine-protein kinase BMX (Homo sapiens). As to the kind of experiment: Displacement of competitive tracer from BMX (unknown origin) assessed as target occupancy at […] preincubated for 15 mins measured for 24 hrs relative to control. Particulars: dose 1.5 µM.
Data set [3] concerns the target T2, Tyrosine-protein kinase ITK/TSK (Homo sapiens) (UniProt Q08881).
T2 sequence (whole entry): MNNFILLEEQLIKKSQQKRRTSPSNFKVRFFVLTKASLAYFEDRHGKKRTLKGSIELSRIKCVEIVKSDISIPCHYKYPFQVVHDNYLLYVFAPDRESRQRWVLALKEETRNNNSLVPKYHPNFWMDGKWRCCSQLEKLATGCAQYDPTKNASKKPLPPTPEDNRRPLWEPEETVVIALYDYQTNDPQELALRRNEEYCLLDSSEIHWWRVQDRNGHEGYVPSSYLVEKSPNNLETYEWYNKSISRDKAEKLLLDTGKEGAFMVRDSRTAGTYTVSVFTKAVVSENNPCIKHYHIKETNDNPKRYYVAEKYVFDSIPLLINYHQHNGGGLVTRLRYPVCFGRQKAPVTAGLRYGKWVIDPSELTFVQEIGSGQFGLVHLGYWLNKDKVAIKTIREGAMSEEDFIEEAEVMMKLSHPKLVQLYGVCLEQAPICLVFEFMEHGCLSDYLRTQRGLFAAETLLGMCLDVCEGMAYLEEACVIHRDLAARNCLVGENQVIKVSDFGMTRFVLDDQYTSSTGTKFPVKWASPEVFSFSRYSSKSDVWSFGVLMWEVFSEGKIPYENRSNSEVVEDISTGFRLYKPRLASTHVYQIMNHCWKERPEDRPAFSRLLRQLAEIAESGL
As to the kind of experiment: Displacement of competitive tracer from ITK (unknown origin) assessed as target occupancy at […] preincubated for 15 mins measured for 24 hrs relative to control. Particulars: dose 1.5 µM.

Data set [4] has as its target T3, Tyrosine-protein kinase Tec (Homo sapiens) (UniProt P42680).
T3 sequence (whole entry): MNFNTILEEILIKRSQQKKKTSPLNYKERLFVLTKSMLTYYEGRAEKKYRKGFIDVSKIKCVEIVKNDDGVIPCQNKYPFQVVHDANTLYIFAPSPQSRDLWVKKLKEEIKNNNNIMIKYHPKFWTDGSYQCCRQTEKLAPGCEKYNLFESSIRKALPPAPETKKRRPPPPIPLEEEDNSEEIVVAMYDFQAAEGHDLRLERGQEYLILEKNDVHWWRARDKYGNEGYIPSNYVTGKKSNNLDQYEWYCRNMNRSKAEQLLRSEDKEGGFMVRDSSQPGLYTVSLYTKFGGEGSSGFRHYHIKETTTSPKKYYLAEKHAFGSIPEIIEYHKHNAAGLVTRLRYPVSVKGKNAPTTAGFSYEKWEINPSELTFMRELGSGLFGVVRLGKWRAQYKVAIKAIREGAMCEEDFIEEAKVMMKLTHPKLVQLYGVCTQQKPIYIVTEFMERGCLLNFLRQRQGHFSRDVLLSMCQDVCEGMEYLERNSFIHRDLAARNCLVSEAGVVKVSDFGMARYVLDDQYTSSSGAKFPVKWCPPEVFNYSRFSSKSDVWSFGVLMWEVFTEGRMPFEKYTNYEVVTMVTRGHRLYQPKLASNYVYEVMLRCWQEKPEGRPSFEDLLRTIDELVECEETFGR
Description: Displacement of competitive tracer from TEC (unknown origin) assessed as target occupancy at […] preincubated for 15 mins measured for 1 hr relative to control. The note with it: dose 1.5 µM.

Data set [5] addresses T3, Tyrosine-protein kinase Tec (Homo sapiens). Description: Displacement of competitive tracer from TEC (unknown origin) assessed as target occupancy at […] preincubated for 15 mins measured for 24 hrs relative to control. Particulars: dose 1.5 µM.
Data set [6] concerns the target T4, Tyrosine-protein kinase TXK (Homo sapiens) (UniProt P42681).
T4 sequence (whole entry): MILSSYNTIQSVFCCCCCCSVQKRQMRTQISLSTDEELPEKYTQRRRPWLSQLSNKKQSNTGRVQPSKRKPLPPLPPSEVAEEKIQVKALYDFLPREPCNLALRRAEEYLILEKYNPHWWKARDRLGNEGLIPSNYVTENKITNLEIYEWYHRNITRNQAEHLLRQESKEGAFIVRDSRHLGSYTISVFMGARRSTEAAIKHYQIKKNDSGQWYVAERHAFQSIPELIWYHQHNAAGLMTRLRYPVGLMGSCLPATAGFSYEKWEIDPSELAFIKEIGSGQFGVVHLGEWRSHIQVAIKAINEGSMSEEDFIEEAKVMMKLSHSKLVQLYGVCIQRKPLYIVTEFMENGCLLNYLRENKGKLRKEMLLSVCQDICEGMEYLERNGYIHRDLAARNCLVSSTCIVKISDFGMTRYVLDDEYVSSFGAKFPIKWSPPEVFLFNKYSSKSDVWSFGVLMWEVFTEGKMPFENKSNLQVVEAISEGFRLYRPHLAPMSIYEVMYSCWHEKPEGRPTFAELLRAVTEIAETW
As to the kind of experiment: Displacement of competitive tracer from RLK (unknown origin) assessed as target occupancy at […] preincubated for 15 mins measured for 1 hr relative to control. The note with it: dose 1.5 µM.

Data set [7] in a line: Drug concentration in plasma of collagen-induced arthritis Lewis rat model 3 mg/kg/day, po measured after 6 hrs post-collection of plasma. In kind it is ADME, organism-based.
Data set [8] deals with Sodium-dependent dopamine transporter (Homo sapiens) (UniProt Q01959). Description: Displacement of [3H]BTCP from recombinant human dopamine transporter DAT at 10 uM incubated for 120 mins by radiometric scintillation assay relative to control.
A short description of data set [9]: Toxicity in female Beagle dog assessed as reduction in activity up to 400 mg/kg/day qd for 12 weeks. In kind it is organism-based, Canis lupus familiaris. Particulars: in vivo, 2016 h.
Data set [10] is described as follows: Toxicity in female Beagle dog assessed as NOAEL. The arrangement: species or system Canis lupus familiaris. Particulars: in vivo.

Sodium-dependent dopamine transporter (Homo sapiens), sequence (Q01959 whole entry): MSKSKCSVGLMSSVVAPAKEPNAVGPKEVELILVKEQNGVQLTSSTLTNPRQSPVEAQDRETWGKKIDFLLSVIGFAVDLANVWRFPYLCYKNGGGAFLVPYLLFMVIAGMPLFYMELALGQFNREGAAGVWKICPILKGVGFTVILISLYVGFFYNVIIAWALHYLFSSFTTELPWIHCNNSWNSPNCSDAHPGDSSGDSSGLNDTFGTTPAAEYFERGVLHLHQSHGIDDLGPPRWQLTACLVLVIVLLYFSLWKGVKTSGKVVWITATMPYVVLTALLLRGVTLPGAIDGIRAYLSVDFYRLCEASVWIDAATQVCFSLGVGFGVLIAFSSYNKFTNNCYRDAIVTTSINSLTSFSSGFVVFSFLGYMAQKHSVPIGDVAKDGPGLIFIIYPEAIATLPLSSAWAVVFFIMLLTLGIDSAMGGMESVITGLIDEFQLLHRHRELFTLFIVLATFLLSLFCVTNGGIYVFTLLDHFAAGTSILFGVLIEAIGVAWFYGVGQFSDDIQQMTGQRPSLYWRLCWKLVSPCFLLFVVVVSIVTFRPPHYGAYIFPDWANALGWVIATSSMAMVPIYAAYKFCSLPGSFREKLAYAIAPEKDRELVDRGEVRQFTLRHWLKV

As to `CC(C)(C)/C=C(\C#N)C(=O)N1CCC[C@@H](n2nc(-c3ccc(Oc4ccccc4)cc3F)c3c(N)ncnc32)C1` [ATUZABRUTINIB], the Activity in data set [1] was 90%; in [2], 69%; in data set [3], -7%; in data set [4], 87%; in data set [5] it was 76%; in [6], 88%. Further, the Activity entry in [9] is reported as “Toxic”. Also, the concentration at 6 h in data set [7] is 5.2 ng/mL. For the same molecule, in data set [8], the inhibition was above 50%. In [10], the no-observed-adverse-effect level (NOAEL) came out at 120 mg/kg.
